According to patent US8507411B2, “Neoglycorandomization and digitoxin analogs” (priority 2004, dated 2013):
pIC50: −log10 of the molar value. Where two headings read alike, the source gives them in different places.

Key:
NCI-H460 = test: High-throughput calcein AM cytotoxicity assay, NCI-H460; format: cell-based, human; conditions: read-out: IC50, NCI-H460
Source text: Standard errors are depicted with error bars.

SKOV-3 = test: Cell titer-glo cytotoxicity assay, SKOV-3; format: cell-based, human
Source text: FIG. 7 is a graphical summary of the results of the IC50 data from cytotoxicity assays. […] In the assay, live cells are quantified by measuring the luminescent signal resulting from the reaction between cellular ATP and luciferin to form oxyluciferin. The IC50 value for each compound represents at least four replicates of dose-response experiments conducted over six concentrations at two-fold dilutions.
The anticancer activities of ten panel analogues (3a-c,e,f and 4a-c,e,f) and digitoxin (1) were assessed using a high-throughput cytotoxicity assay on four human cancer cell lines, (FIG. 7) representing lung, colorectal, and ovarian carcinomas, as well as NCI/ADR-RES, a drug-resistant ovarian carcinoma line (For years, NCI/ADR-RES cells have been misidentified as drug-resistant MCF-7 breast adenocarcinoma cells, but recently this line has been shown definitively to be a drug-resistant line derived from OVCAR-8 ovarian adenocarcinoma cells. Liscovitch, M. et al., Cancer Lett. (2007) 245, 350-352.
All cell lines were maintained as previously reported (Langenhan, J. M. et al., Proc. Natl. Acad. Sci. (2005) 102, 12305-12310.) Cells were harvested by trypsinization using 0.25% trypsin and 0.1% EDTA and then counted in a Cellometer Auto T4 cell counter (Nexcelom, inc), before dilution for assay plating. Cell plating, compound handling and assay set up were performed as previously reported^1 except for the cells were plated in 50 μL volumes in 384 well clear bottom, tissue culture plates (Corning-Costar, Inc). Compounds were added from the 384-well compound stock plates at a 1:100 dilution using a Biomek FX liquid handler equipped with a 384 channel head (Beckman Coulter, Inc.). Cell titer-glo reagent (15 μL) (Promega Corporation, Inc.) was added and incubated for 10 min at room temperature with gentle agitation to lyse the cells. Each plate was read for luminescence. […] IC50 values were determined using XLFit 4.0 as previously reported (see Table 7).

[1] = test system: nine human cancer cell lines and a mouse mammary normal epithelial control line; test: High-throughput calcein AM cytotoxicity assay, whole cell line panel
Source text: In the assay, live cells were distinguished by the presence of a ubiquitous intracellular enzymatic activity which converts the non-fluorescent cell-permeable molecule calcein AM to the intensely fluorescent molecule calcein, which is retained within live cells. The IC50 value for each library member represents at least six replicates of dose-response experiments conducted over five concentrations using two-fold dilutions. […] Standard errors are depicted with error bars. Numerical values and corresponding error values can be found in Table 4. Du145: […]; MCF7: human breast carcinoma; HCT-116: human colon carcinoma, Hep3B: human liver carcinoma; SF-268: human CNS glioblastoma; SK-OV-3: human ovary adenocarcinoma; NCI-H460: human lung carcinoma; A549: human lung adenocarcinoma; NCI/ADR-RES: human breast carcinoma; NmuMG: mouse mammary normal epithelial.
Cell Culture: All cell lines except NmuMG were maintained in RPMI 1640 medium from InVitrogen (Cat No. 11875-085) supplemented with 10% w/v fetal bovine serum (FBS) from ICN (Cat No. 2916154) and penicillin-streptomycin (PS) (100 U/mL and 100 μg/mL) from InVitrogen (Cat No. 15140-122). NmuMG cells were maintained in DMEM medium from InVitrogen (Cat No. 11965-084) supplemented with 10% w/v fetal bovine serum (FBS) from ICN (Cat No. 2916154), 10 μg/ml insulin (InVitrogen Cat No 12585-014), and penicillin-streptomycin (PS) (100 U/mL and 100 μg/mL) from InVitrogen (Cat No. 15140-122). Cells were harvested by trypsinization using 0.25% w/v trypsin and 0.1% w/v EDTA from InVitrogen (Cat No. 15-050-057) and then counted in a hemocytometer in duplicate with better than 10% agreement in field counts. Cells were plated at a cell density of 10,000-15,000 cells/well of each Corning Costar 96-well black tissue culture treated microtiter plate (Fisher Cat No. 07-200-627). Cells were grown for 1 h at 37° C., with 5% CO2 in a humidified incubator to allow cell attachment to occur before compound addition.
Library Member Handling and Preparation for Cytotoxicity Assays: Library members were stored at −20° C. under dessicating conditions before the assay. Library member stocks (100×) were prepared in Corning Costar polypropylene 96-well V-bottom polypropylene microtiter plates (Fisher Cat No. 07-200-695). Five serial 1:2 dilutions were made with anhydrous DMSO at 100× the final concentration used in the assay.
Library Member Addition: The library member-containing plates were diluted 1:10 with complete cell culture media. The 10× stocks (10 μL) were added to the attached cells using a Biomek FX liquid handler (Beckman-Coulter). Library member stocks (10 μL) were added to 90 μL of cells in each plate to insure full mixing of stocks with culture media using a Beckman FX liquid handler with 96-well head.
Determination of Cytotoxicity: Cells were incubated with the library members for 72 h before fluorescence reading. Test plates were removed from the incubator and washed 1× in sterile PBS to remove serum containing calcium esterases. Calcein AM reagent (30 μL, […]) was added and the cells were incubated for 30 min at 37° C. Plates were read for emission using a fluorescein filter (excitation 485 nm, emission 535 nm).
IC50 Calculation: For each library member, at least six dose response experiments were conducted. […] To calculate IC50, percent inhibitions were plotted as a function of log [concentration] and then fit to a four-parameter logistic model that allowed for a variable Hill slope using XLfit 4.1.
Cytotoxicity Assays. All cell lines except NmuMG were maintained in RPMI 1640 medium supplemented with 10% w/v fetal bovine serum (FBS) and penicillin-streptomycin (PS) (100 U/mL and 100 μg/mL).

[2] = SKOV-3, Cell titer-glo, read-out: IC50

**Q.** Which results are given for CON([C@H]1CC[C@@]2(C)[C@H](CC[C@@H]3[C@@H]2CC[C@]2(C)[C@@H](C4=CC(=O)OC4)CC[C@]32O)C1)[C@H]1OC[C@H](O)[C@H](O)[C@@H]1O [5β, L-riboside]?
**A.** pIC50 (NCI-H460; NCI-H460 cells): 7.28; pIC50 (SKOV-3; [2]): < 6.00; pIC50 ([1]; range over cell lines): 7.23 to 7.74

**Q.** With CON([C@H]1CC[C@@]2(C)[C@H](CC[C@@H]3[C@@H]2CC[C@]2(C)[C@@H](C4=CC(=O)OC4)CC[C@]32O)C1)[C@H]1OC[C@H](O)[C@@H](O)[C@@H]1O [23β, L-xyloside] as the compound, how does the pIC50 (NCI-H460; NCI-H460 cells) read?
**A.** 7.10

**Q.** And the pIC50 (SKOV-3; [2])?
**A.** < 6.00

**Q.** And the “cytotoxicity (in words)” value ([1]; cell line panel, 72 h, calcein AM)?
**A.** significantly more potent than digitoxin against some cell lines

**Q.** CON([C@H]1CC[C@@]2(C)[C@H](CC[C@@H]3[C@@H]2CC[C@]2(C)[C@@H](C4=CC(=O)OC4)CC[C@]32O)C1)[C@@H]1O[C@H](CO)[C@@H](O)[C@H](O)[C@@H]1O [27β, D-mannoside] was tested. Which pIC50 (NCI-H460; NCI-H460 cells) did it give?
**A.** 6.15

**Q.** With C[C@H]1O[C@@H](O[C@H]2[C@@H](O)C[C@H](O[C@H]3[C@@H](O)C[C@H](O[C@H]4CC[C@@]5(C)[C@H](CC[C@@H]6[C@@H]5CC[C@]5(C)[C@@H](C7=CC(=O)OC7)CC[C@]65O)C4)O[C@@H]3C)O[C@@H]2C)C[C@H](O)[C@@H]1O [digitoxin] as the compound, how does the pIC50 (NCI-H460; Homo sapiens, NCI-H460, NCI-H460 cells) read?
**A.** 6.55

**Q.** What about the pIC50 (SKOV-3; Homo sapiens, SK-OV-3) of the same compound?
**A.** < 6.00

**Q.** What about the pIC50 ([1]; Homo sapiens, read-out: average IC50) of the same compound?
**A.** ~6.36
